Laboratory results from ChEMBL document CHEMBL1201862, “PubChem BioAssay data set” (2004).
Calls of active or inactive are those of the source.

Legend:
Cytochrome P450 3A4 = Cytochrome P450 3A4 (Homo sapiens, UniProt P08684);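 note: CYP3A4 tested as one member of a cytochrome P450 panel screen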
INS1 = experiment: beta cell apoptosis inhibitors, cytokine rescue, dose response, luminescence, retest (AID 449756); type: functional, cell-based; conditions: Rattus norvegicus;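 note: cell death triggered by IL-1 beta plus TNF-alpha plus IFN-gamma mixture; protective hits raise ATP signal compared with cytokine alone wells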
Cytochrome P450 2C19 = Cytochrome P450 2C19 (Homo sapiens, UniProt P33261); experiment: Cytochrome panel assay with activity outcomes. Panel member name: p450-cyp2c19 Compounds with AC50 equal or less than 10 uM are considered active; type: functional
[1] = growth suppression of beta-catenin-knockout colon cells, dose response, cell-based, HCT116, human colon tumor (AID 1045); type: functional;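 note: HCT116 colon tumor cells with beta catenin knocked out; cells exposed to compound for 60 hours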
[2] = growth suppression of PTEN-null colon cells, dose response, cell-based, HCT116 PTEN knockout (AID 1047); type: functional;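 note: HCT116 colon tumor cells with PTEN knocked out; cells exposed to compound for 60 hours before readout; potency for loss of cell viability measured by luminescence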
[3] = Luminescence Cell-Based Dose Confirmation HTS to Identify Inhibitors of Platelet Dense Granule Release. [Related pubchem assays: 1663 (Primary HTS), 1678 (Summary of Project)]; type: functional
[4] = molecular target: Luciferin 4-monooxygenase (Photinus pyralis, UniProt P08659); experiment: firefly luciferase enzyme inhibitors, dose response, biochemical, luminescence (AID 1891)
Streptokinase A = molecular target: T1, Streptokinase A (Streptococcus pyogenes serotype M1, UniProt P10520); experiment: S. pyogenes streptokinase expression inhibitors, potency, dose response, plasminogen activation absorbance, OD405 (AID 1914); type: functional, Streptococcus pyogenes M1 GAS;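 note: secreted streptokinase activity via plasminogen activation per viability signal from cell pellet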
T1 sequence (P10520 whole entry): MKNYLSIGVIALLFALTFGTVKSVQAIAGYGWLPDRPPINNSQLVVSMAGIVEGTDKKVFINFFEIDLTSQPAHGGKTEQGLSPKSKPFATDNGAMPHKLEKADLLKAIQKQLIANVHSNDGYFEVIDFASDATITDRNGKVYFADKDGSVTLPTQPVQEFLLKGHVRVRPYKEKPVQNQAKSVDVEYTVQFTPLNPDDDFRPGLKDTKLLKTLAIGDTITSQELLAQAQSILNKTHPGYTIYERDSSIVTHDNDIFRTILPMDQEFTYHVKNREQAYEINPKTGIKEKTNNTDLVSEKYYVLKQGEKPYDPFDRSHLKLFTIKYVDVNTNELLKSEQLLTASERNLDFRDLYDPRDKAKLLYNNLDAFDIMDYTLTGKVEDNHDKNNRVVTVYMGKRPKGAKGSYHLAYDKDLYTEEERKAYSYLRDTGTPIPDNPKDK

[5] = tested on: Streptococcus sp. 'group A'; experiment: growth inhibition of control SK(-) GAS strain, dose response, counter-screen for streptokinase expression inhibitor project, luminescence, kanamycin, BacTiterGlo, confirmation (AID 1900); type: functional, organism-based
[6] = Luminescence Cell-Based Dose Retest to Confirm Inhibitors of Cancer Stem Cells. [Related pubchem assays (depositor defined):AID2717, AID2721]; type: functional, Homo sapiens; conditions: Homo sapiens
Streptococcus = experiment: Group A Streptococcus viability loss, dose response, counter-screen for streptokinase expression inhibitor project, luminescence, BacTiterGlo (AID 1915); type: functional, organism-based;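 note: potency for reduction of bacterial viability or growth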
[7] = cytotoxicity toward NIH3T3 fibroblasts, dose response, counter-screen, cell-based, ATP luminescence, mouse fibroblasts (AID 2010); type: functional;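 note: cells exposed to compound for about 90 hours before reading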
[8] = inhibitors of intracellular T. cruzi replication, confirmation, NIH3T3 host cells, beta-gal luminescence (AID 2044); type: functional, cell-based;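 note: intracellular parasites grown in NIH/3T3 mouse fibroblasts as host cells; luminescent beta-galactosidase reporter signal from transgenic T. cruzi replicating inside host cells; inhibitors lower the luminescence signal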
[9] = HEp-2 cell cytotoxicity, dose response, cytotoxicity control for RSV inhibitor project, HTS (AID 2410); type: functional; conditions: human respiratory syncytial virus

Sequence of Cytochrome P450 3A4 (P08684 whole entry): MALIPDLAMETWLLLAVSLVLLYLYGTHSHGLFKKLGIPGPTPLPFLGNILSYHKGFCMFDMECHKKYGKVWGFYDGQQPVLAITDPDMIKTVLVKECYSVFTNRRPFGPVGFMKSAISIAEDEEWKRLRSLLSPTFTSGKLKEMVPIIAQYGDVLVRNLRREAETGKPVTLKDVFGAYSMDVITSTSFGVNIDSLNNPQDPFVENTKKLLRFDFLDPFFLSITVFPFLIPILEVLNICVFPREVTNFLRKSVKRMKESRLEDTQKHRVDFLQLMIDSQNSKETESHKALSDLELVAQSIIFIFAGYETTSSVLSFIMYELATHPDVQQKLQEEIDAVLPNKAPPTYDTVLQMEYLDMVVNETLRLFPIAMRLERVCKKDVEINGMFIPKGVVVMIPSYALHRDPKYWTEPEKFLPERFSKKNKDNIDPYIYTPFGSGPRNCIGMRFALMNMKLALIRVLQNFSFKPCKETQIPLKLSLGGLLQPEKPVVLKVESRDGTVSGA
Sequence of Luciferin 4-monooxygenase (P08659 whole entry): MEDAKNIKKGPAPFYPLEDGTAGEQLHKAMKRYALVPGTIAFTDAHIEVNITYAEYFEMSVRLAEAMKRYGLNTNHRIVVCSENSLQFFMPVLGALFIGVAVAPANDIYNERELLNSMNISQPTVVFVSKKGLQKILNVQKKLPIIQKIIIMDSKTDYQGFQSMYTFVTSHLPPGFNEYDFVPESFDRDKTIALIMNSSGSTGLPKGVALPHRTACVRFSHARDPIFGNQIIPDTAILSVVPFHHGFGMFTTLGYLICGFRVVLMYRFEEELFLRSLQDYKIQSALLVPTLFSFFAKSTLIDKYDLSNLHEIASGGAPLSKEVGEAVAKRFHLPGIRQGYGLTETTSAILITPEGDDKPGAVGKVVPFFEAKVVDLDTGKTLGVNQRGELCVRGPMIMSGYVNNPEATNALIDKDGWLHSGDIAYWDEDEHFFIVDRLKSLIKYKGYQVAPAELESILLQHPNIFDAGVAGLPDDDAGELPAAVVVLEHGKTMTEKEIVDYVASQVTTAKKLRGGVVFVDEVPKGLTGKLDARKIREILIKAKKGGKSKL
Sequence of Cytochrome P450 2C19 (P33261 whole entry): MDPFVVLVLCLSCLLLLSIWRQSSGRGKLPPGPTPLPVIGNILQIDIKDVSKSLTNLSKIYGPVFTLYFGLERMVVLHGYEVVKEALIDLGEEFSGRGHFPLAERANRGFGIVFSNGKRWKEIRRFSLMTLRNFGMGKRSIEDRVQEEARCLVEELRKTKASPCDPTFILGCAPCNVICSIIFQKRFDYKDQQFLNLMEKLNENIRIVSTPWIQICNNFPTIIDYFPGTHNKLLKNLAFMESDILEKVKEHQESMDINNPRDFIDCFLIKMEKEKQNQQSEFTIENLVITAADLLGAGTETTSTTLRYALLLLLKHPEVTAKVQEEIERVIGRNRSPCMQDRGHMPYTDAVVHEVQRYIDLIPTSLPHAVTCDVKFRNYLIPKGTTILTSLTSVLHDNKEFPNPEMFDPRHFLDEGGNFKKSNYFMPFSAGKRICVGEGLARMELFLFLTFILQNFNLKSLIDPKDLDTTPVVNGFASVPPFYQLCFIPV

COCC(=O)N/N=C/c1ccc(Sc2nc3ccccc3s2)o1
AC50 (Cytochrome P450 3A4): 22.4 µM (inconclusive)

O=C(c1ccco1)N1CCC2(CCCN(c3ccccc3)C2)CC1
AC50 (Cytochrome P450 3A4): 15.8 µM (inconclusive)

CC[C@]1(c2ccccc2OC)ON(c2ccccc2C(F)(F)F)C1=O
AC50 (INS1): 1.75 µM (active)

C=CCNC(=O)c1ccc2nc(-c3ccccc3)c(-c3ccccc3)nc2c1
AC50 (Cytochrome P450 2C19; read-out: AC50): 39.8 µM (inconclusive)

O=[N+]([O-])c1cccc(/C=C/c2nc(/C=N/c3ccc4ccccc4c3)c(O)o2)c1
EC50 [1]: 18 µM (active) | EC50 [2]: 12.8 µM (active)

CC(C)c1cccc2nc3c(c(C(C)(C)C)c12)Cn1c-3cccc1=O
AC50 (Cytochrome P450 2C19; read-out: AC50): 25.1 µM (inconclusive) | AC50 (Cytochrome P450 3A4): 5.01 µM (inconclusive)

Cc1ccc(NS(=O)(=O)c2cccc(C(=O)N3CCCCCCC3)c2)cc1
EC50 [3]: > 112 µM (not active) | EC50 [4]: > 112 µM (not active)

O=C(N/N=C\c1ccc(CNS(=O)(=O)c2ccc(Cl)cc2)o1)C(=O)Nc1ccc(Oc2ccccc2)cc1
EC50 [1]: 11.1 µM (active) | EC50 [2]: 9.47 µM (active)

COc1cc(NC(=S)N2CCN(C/C=C/c3ccccc3)CC2)cc(OC)c1
EC50 [3]: > 112 µM (not active) | EC50 [4]: > 112 µM (not active)

O=C1COc2ccc(C(=O)COC(=O)c3cc(S(=O)(=O)N4CCOCC4)ccc3F)cc2N1
EC50 [3]: 22.9 µM (active) | EC50 [4]: > 112 µM (not active)

C=C(CC1([C@@H](NP(=O)(c2ccccc2)c2ccccc2)[C@H]2C[C@@H]2CCCC)CC1)c1ccccc1
EC50 (Streptokinase A): > 150 µM (not active) | EC50 [5]: 2.27 µM (active) | AC50 (Cytochrome P450 2C19; read-out: AC50): 7.94 µM (inconclusive) | AC50 [6]: 3.22 µM (active) | EC50 (Streptococcus): 4.4 µM (active)

CCN(CC)c1ccc(C(=O)N/N=C/c2ccccc2OC(F)F)cc1
AC50 (INS1): 5.97 µM (active)

COc1ccc2[nH]cc(C=O)c2c1
AC50 (Cytochrome P450 2C19; read-out: AC50): 28.2 µM (inconclusive)

NC(=O)c1c(NC(=O)c2ccc(S(=O)(=O)N(CCCl)CCCl)cc2)sc2c1CCCCC2
EC50 [1]: 20.5 µM (active) | EC50 [2]: 15 µM (active)

COc1c(/C=N/Nc2nc(N3CCCCC3)nc(N3CCCCC3)n2)cccc1[N+](=O)[O-]
AC50 (Cytochrome P450 2C19; read-out: AC50): 7.94 µM (inconclusive)

CCOC(=O)C1=C(c2ccccc2)N=c2s/c(=C\c3cccc(O)c3)c(=O)n2C1c1cccs1 (configuration not stated)
EC50 [1]: 15.1 µM (active) | AC50 [6]: 2.94 µM (active) | EC50 [2]: 15 µM (active)

COc1cc(C2c3c(-c4cc(Cl)c(C)cc4O)n[nH]c3C(=O)N2Cc2cccnc2)ccc1O (configuration not stated)
EC50 [3]: 85 µM (active) | EC50 [4]: > 112 µM (not active)

C=CCNC(=O)/C(C#N)=C/c1c(N(Cc2ccccc2)Cc2ccccc2)nc2ccccn2c1=O
EC50 [1]: 25.3 µM (active) | EC50 [2]: 26 µM (active)

COc1ccccc1C(=O)COC(=O)/C=C/c1ccccc1
EC50 [3]: > 112 µM (not active) | EC50 [4]: > 112 µM (not active)

Cc1ccc2c(c1)C1CCCC3C1N2CC(=O)N3Cc1ccccc1 (configuration not stated)
EC50 [1]: 62.7 µM (active) | EC50 [2]: 33.9 µM (active)

Oc1nc2cc(NC(S)=Nc3ccccc3Cl)ccc2[nH]1
EC50 [3]: > 112 µM (not active)

CCN=C(S)NNC(=O)c1cc(-c2cccc(OC)c2)nc2ccccc12
EC50 [3]: 7.86 µM (active) | EC50 [4]: 0.259 µM (active)

CCc1ccc2c(c1)C1(NN=C(c3ccc(C)cc3)S1)C(=O)N2 (configuration not stated)
EC50 [1]: 2.81 µM (active) | EC50 [2]: 4.58 µM (active)

COc1ccc(/C(C)=N/Nc2nc(C)cc(-c3ccccc3)n2)cc1
AC50 (INS1): 0.703 µM (active)

CC(Nc1nc(N2CCCC2)nc2ccccc12)c1ccccc1 (configuration not stated)
EC50 [1]: 4.31 µM (active) | EC50 [7]: 55.9 µM (active) | EC50 [2]: 5.65 µM (active) | EC50 [8]: 0.568 µM (active)

Cc1cc(C(C)(C)C)c(OCCCN2CCOCC2)c(C(C)(C)C)c1
AC50 (Cytochrome P450 3A4): 3.16 µM (inconclusive)

c1ccc2[nH]c(-c3nc4ccccc4[nH]3)nc2c1
EC50 [3]: 3.25 µM (active) | EC50 [4]: 2.11 µM (active)

COc1ccc(Cl)cc1NC(=O)c1cc(S(=O)(=O)N2CCCC2)cn1C
EC50 [3]: > 112 µM (not active) | EC50 [4]: > 112 µM (not active)

CCCNC(=O)OC[C@@H]1O[C@H](CCON=C(C)C)C=C[C@@H]1Oc1ccc(OC)cc1
AC50 (Cytochrome P450 3A4): 3.98 µM (inconclusive)

COCCn1c(=O)c(-c2cc(F)cc(F)c2)nc2cncnc21
AC50 (Cytochrome P450 3A4): 15.8 µM (inconclusive)

O=C(/C=C/c1ccc(-c2ccccc2)cc1)NCc1cccnc1
AC50 (INS1): 7.49 µM (active)

OC(COc1cccc2ccccc12)CN1CCN(c2ccc(Cl)cc2)CC1 (configuration not stated)
EC50 (Streptokinase A): 31.1 µM (active) | EC50 [5]: 19.7 µM (active) | CC50 [9]: 12 µM (active) | AC50 [6]: 6.37 µM (active) | EC50 (Streptococcus): 34.3 µM (active)

Cc1c(C(=O)Nc2ccc(-c3nnc4n3CCCCC4)cc2)oc2c1ccc1ccccc12
EC50 [1]: 20.9 µM (active) | EC50 [7]: > 60 µM (not active) | AC50 [6]: 2.48 µM (active) | EC50 [2]: 19.8 µM (active) | EC50 [8]: 1.45 µM (active)

COc1ccc(OC)c2sc(NC(=O)CCS(=O)(=O)c3ccccc3)nc12
EC50 [1]: 62 µM (active) | EC50 [2]: 81.3 µM (active)

[O-][n+]1c2c([n+]([O-])c3cc(F)c(F)cc31)CCCC2
AC50 (Cytochrome P450 2C19; read-out: AC50): 1 µM (inconclusive)

CN(C)CCNc1ccccn1
AC50 (Cytochrome P450 2C19): inconclusive

COC(=O)c1ccc2c(=O)n(-c3ccccc3)c(SCN3C(=O)c4ccccc4C3=O)nc2c1
AC50 (INS1): 6.09 µM (active)

CCOC(=O)C1=NN(C(=O)Nc2ccc(OC)cc2)C2C(=O)N(c3cccc(C(F)(F)F)c3)C(=O)C12 (configuration not stated)
EC50 [3]: 27.2 µM (active) | EC50 [4]: > 112 µM (not active)

CC(C)(C)NC(=O)C(c1ccccn1)N(C(=O)C1CSC(=O)C1)c1ccc(F)cc1 (configuration not stated)
AC50 (Cytochrome P450 3A4): 0.794 µM (inconclusive)

COC(=O)c1cc(=O)n(Cc2ccco2)/c(=N/c2ccc(F)c(Cl)c2)s1
EC50 [1]: 7.55 µM (active) | EC50 [2]: 8.9 µM (active)

Cc1nc2ccccc2n1CC(=O)N/N=C\c1ccccn1
AC50 (Cytochrome P450 2C19): inconclusive

COCCNC(=O)c1cn(Cc2c(F)cccc2Cl)nn1
EC50 [3]: > 112 µM (not active) | EC50 [4]: > 112 µM (not active)

Cc1cc(NC(=O)Cn2nc(C)c([N+](=O)[O-])c2C)no1
EC50 [3]: > 112 µM (not active) | EC50 [4]: > 112 µM (not active)

COc1ccc(CNCc2cc3c(C(C)(C)C)nn(-c4ccccc4)c3nc2O)cc1
EC50 [1]: 14.2 µM (active) | EC50 [2]: 10.3 µM (active)

Fc1ccc2nc(Nc3nc4c(F)cc(F)cc4s3)sc2c1
AC50 (INS1): 7.02 µM (active)

Nc1c(C(=O)NCCN2CCOCC2)c2nc3ccccc3nc2n1CCc1ccccc1
EC50 [1]: 17.9 µM (active) | EC50 [2]: 15.4 µM (active)

CC1CC(OC(=O)CN2CCCCC2)CC(C)(C)C1 (configuration not stated)
EC50 [3]: > 112 µM (not active) | EC50 [4]: > 112 µM (not active)
